Results from article PMC10303271, “Synthesis and Receptor Binding Studies of α5 GABAAR Selective Novel Imidazodiazepines Targeted for Psychiatric and Cognitive Disorders” (Molecules, 2023).

What was measured:
[1] = molecular target: T1, 5-HT1A (Homo sapiens, UniProt P08908); experiment: PDSP primary binding 5-HT1A; details: 1.5 h; primary binding, 10,000 nM; last figure of the line = mean of the 4 before it; read-out: 5-HT1A, PDSP raw data, mean
T1 construct: purchased NIMH Psychoactive Drug Screening Program (PDSP)
T1 sequence (P08908 1-422): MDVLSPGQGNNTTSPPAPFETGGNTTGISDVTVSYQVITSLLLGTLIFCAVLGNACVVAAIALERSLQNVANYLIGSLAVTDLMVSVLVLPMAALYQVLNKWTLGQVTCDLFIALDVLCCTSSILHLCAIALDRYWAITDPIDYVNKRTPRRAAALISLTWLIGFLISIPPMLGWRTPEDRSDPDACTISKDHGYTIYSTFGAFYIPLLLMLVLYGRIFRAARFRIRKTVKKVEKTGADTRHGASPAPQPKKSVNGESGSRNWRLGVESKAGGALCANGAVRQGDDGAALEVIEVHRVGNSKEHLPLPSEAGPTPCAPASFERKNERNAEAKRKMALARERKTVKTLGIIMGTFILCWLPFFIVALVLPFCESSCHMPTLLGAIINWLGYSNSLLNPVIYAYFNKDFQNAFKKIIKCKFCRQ
Protocol: (§1) To determine if any off-target receptor-binding effects are present, all the novel ligands were sent to the National Institute of Mental Health (NIMH), Psychoactive Drug Screening Program (PDSP). The ligands were screened over a panel of 47 receptors, ion channels, and transporters to determine any other possible interactions with […]. The hERG-binding was also determined. […] No binding of the test compounds to calcium channels was observed. […] It is necessary to screen the compounds for hERG-binding during the early process of drug discovery. The unintentional binding of many drugs to hERG can cause blockade of hERG K+ channels in the heart, which can cause many side effects including cardiac arrhythmias and sudden death. […] All of the α5 imidazodiazepines were tested for hERG-binding.
(§2) The NIMH PDSP assay protocol book [https://kidbdev.med.unc.edu/databases/PDSP%20Protocols%20II%202013-03-28.pdf accessed on 23 April 2023]. describes the protocols for primary and secondary radio-ligand binding assays. These assays were carried out in a final volume of 125 µL per well in the appropriate binding buffer.
(§3) The binding of a ligand to a receptor, ion channel, or transporter was determined in the […] of 10 µM of the appropriate reference compound. […] Plates were incubated in the dark for 90 min at rt, and the reactions were stopped by vacuum filtration onto 0.3% polyethyleneimine (PEI) soaked 96-well filter mats using a 96-well Filtermateharvester. This was followed by three washes with cold PBS buffer. Radioactivity was then counted on a Microbeta counter. Nonlinear regression was used to analyze the data with N = 6 replicates.

[2] = molecular target: T2, 5-HT1B (Homo sapiens, UniProt P28222); experiment: PDSP primary binding 5-HT1B; details: 1.5 h; primary binding, 10,000 nM; last figure of the line = mean of the 4 before it; read-out: 5-HT1B, PDSP raw data, mean
T2 construct: purchased NIMH Psychoactive Drug Screening Program (PDSP)
Protocol: as §1, §2, §3

[3] = molecular target: T3, 5-HT2C (Homo sapiens, UniProt P28335); experiment: PDSP primary binding 5-HT2C; details: 1.5 h; primary binding, 10,000 nM; last figure of the line = mean of the 4 before it; read-out: 5-HT2C, PDSP raw data, mean
T3 construct: purchased NIMH Psychoactive Drug Screening Program (PDSP)
T3 sequence (P28335 33-458): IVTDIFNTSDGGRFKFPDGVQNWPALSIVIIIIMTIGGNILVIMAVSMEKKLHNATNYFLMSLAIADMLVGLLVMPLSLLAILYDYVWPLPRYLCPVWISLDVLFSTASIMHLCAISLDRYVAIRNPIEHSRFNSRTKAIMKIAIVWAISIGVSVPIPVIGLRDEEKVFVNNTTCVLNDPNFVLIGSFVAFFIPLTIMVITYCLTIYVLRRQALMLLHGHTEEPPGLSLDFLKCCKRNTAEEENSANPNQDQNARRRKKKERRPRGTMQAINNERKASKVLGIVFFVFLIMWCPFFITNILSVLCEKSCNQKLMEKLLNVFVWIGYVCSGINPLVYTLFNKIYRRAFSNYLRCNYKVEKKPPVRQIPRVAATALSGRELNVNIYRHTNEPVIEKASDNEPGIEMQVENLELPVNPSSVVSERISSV
Protocol: as §1, §2, §3

[4] = molecular target: T4, D4 (Homo sapiens, UniProt P21917); experiment: PDSP primary binding D4; details: 1.5 h; primary binding, 10,000 nM; last figure of the line = mean of the 4 before it; read-out: D4, PDSP raw data, mean
T4 construct: purchased NIMH Psychoactive Drug Screening Program (PDSP)
T4 sequence (P21917 1-419): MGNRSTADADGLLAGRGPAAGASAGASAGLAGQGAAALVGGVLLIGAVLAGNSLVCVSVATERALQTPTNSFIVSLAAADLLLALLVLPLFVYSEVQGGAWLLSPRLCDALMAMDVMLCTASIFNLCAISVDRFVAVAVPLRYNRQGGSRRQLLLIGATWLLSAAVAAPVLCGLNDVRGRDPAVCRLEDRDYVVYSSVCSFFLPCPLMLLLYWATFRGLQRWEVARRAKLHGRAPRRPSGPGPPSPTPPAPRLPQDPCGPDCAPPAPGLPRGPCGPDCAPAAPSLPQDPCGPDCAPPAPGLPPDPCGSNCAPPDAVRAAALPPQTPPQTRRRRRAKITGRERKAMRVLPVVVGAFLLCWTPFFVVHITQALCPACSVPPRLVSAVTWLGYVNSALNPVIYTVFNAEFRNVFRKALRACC
Protocol: as §1, §2, §3

[5] = molecular target: T5, D5 (Homo sapiens, UniProt P21918); experiment: PDSP primary binding D5; details: 1.5 h; primary binding, 10,000 nM; last figure of the line = mean of the 4 before it; read-out: D5, PDSP raw data, mean
T5 construct: purchased NIMH Psychoactive Drug Screening Program (PDSP)
Protocol: as §1, §2, §3

[6] = molecular target: T6, H4 (Homo sapiens, UniProt Q9H3N8); experiment: PDSP primary binding H4; details: primary binding, 10,000 nM; last figure of the line = mean of the 4 before it; read-out: H4, PDSP raw data, mean
T6 construct: purchased NIMH Psychoactive Drug Screening Program (PDSP)
Protocol: as §1, §2, §3

[7] = test system: AMPA; experiment: PDSP primary binding AMPA; details: primary binding, 10,000 nM; last figure of the line = mean of the 4 before it
Protocol: as §1, §2, §3

T5 sequence (P21918 whole entry): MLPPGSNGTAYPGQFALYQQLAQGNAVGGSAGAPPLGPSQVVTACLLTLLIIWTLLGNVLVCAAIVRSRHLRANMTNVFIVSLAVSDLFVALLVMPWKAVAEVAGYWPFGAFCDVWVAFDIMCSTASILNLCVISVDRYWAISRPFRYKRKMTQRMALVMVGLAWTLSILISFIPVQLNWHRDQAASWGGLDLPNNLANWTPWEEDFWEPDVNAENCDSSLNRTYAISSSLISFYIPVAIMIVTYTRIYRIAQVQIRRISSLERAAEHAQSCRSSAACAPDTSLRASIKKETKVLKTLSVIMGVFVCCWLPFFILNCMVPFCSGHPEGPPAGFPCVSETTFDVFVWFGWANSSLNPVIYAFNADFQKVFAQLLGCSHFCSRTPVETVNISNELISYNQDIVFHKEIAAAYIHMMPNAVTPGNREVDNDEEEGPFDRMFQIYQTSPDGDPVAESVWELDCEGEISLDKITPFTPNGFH
T6 sequence (Q9H3N8 whole entry): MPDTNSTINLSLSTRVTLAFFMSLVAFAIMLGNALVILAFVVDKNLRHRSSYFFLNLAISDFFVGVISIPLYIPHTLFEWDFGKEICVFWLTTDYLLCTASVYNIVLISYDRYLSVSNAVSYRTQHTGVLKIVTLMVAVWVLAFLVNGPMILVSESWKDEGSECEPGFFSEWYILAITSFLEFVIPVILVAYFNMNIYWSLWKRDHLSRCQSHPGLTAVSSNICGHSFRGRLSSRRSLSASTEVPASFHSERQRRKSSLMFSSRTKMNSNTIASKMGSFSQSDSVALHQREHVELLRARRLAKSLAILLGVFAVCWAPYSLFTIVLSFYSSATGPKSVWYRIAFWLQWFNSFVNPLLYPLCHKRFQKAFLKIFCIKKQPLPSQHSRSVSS
T2 sequence (P28222 whole entry): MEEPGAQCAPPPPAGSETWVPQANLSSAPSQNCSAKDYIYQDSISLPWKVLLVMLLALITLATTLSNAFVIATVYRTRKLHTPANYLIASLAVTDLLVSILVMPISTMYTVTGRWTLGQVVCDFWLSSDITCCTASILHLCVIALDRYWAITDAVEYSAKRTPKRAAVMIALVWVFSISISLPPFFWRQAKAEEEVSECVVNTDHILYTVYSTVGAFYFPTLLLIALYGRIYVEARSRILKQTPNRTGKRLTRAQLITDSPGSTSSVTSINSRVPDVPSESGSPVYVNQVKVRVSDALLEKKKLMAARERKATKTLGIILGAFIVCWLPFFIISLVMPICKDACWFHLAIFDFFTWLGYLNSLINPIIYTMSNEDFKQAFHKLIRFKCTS

SMILES: CC(C)c1noc(-c2ncn3c2[C@@H](C)N=C(c2ccccc2F)c2cc(Cl)ccc2-3)n1 [Compound 37, (R)-5-(8-Chloro-6-(2′-fluorophenyl)-4-methyl-4H-benzo[f]imidazo[1,5-a][1,4]diazepin-3-yl)-3-isopropyl-1,2,4-oxadiazole]
- inhibition at 10 µM [1]: -6%
- inhibition at 10 µM [2]: 10.4%
- inhibition at 10 µM [3]: 17.5%
- inhibition at 10 µM [4]: -10.1%
- inhibition at 10 µM [5]: 17.1%
- inhibition at 10 µM [6]: 6.39%
- AMPA, PDSP raw data, mean [7]: 20.59%

SMILES: C[C@H]1N=C(c2ccccc2F)c2cc(Cl)ccc2-n2cnc(-c3nc(C4CC4)no3)c21 [Compound 38, (R)-5-(8-Chloro-6-(2′-fluorophenyl)-4-methyl-4H-benzo[f]imidazo[1,5-a][1,4]diazepin-3-yl)-3-cyclopropyl-1,2,4-oxadiazole]
- inhibition at 10 µM [1]: -1.57%
- inhibition at 10 µM [2]: 8.75%
- inhibition at 10 µM [3]: 7.18%
- inhibition at 10 µM [4]: -3.44%
- inhibition at 10 µM [5]: 14.1%
- inhibition at 10 µM [6]: 5.24%
- AMPA, PDSP raw data, mean [7]: 21.42%

SMILES: C#Cc1ccc2c(c1)C(c1ccccc1Cl)=N[C@H](C)c1c(C(=O)NC)ncn1-2 [Compound 21, (R)-6-(2′-Chlorophenyl)-8-ethynyl-N,4-dimethyl-4H-benzo[f]imidazo[1,5-a][1,4]diazepine-3-carboxamide]
- inhibition at 10 µM [1]: 4.88%
- inhibition at 10 µM [2]: -0.39%
- inhibition at 10 µM [3]: -14.2%
- inhibition at 10 µM [4]: 2.12%
- inhibition at 10 µM [5]: 12.2%
- inhibition at 10 µM [6]: -4.41%
- AMPA, PDSP raw data, mean [7]: -31.95%

SMILES: C#Cc1ccc2c(c1)C(c1ccccc1Cl)=N[C@H](C)c1c(C(=O)N(C)CC)ncn1-2 [Compound 29]
- inhibition at 10 µM [1]: -2.7%
- inhibition at 10 µM [2]: -3.99%
- inhibition at 10 µM [3]: -10.7%
- inhibition at 10 µM [4]: 1.36%
- inhibition at 10 µM [5]: -17.2%
- inhibition at 10 µM [6]: -21.5%
- AMPA, PDSP raw data, mean [7]: -3.32%

SMILES: CCc1noc(-c2ncn3c2[C@@H](C)N=C(c2ccccc2F)c2cc(C4CC4)ccc2-3)n1 [Compound 46, (R)-5-(8-Cyclopropyl-6-(2′-fluorophenyl)-4-methyl-4H-benzo[f]imidazo[1,5-a][1,4]diazepin-3-yl)-3-ethyl-1,2,4-oxadiazole]
- inhibition at 10 µM [1]: 17.8%
- inhibition at 10 µM [2]: 15.1%
- inhibition at 10 µM [3]: 3.53%
- inhibition at 10 µM [4]: 10.6%
- inhibition at 10 µM [5]: 51.2%
- inhibition at 10 µM [6]: 21.7%
- AMPA, PDSP raw data, mean [7]: 0.81%

SMILES: CCc1noc(-c2ncn3c2CN=C(c2ccccc2F)c2cc(C4CC4)ccc2-3)n1 [Compound 44, 5-(8-Cyclopropyl-6-(2′-fluorophenyl)-4H-benzo[f]imidazo[1,5-a][1,4]diazepin-3-yl)-3-ethyl-1,2,4-oxadiazole]
- inhibition at 10 µM [1]: 36.1%
- inhibition at 10 µM [2]: 62.1%
- inhibition at 10 µM [3]: 24.7%
- inhibition at 10 µM [4]: -4.07%
- inhibition at 10 µM [5]: 9.06%
- inhibition at 10 µM [6]: 20.6%
- AMPA, PDSP raw data, mean [7]: -9.33%

SMILES: CCc1noc(-c2ncn3c2[C@@H](C)N=C(c2ccccc2F)c2cc(Cl)ccc2-3)n1 [Compound 36, (R)-5-(8-Chloro-6-(2′-fluorophenyl)-4-methyl-4H-benzo[f]imidazo[1,5-a][1,4]diazepin-3-yl)-3-ethyl-1,2,4-oxadiazole]
- inhibition at 10 µM [1]: 3%
- inhibition at 10 µM [2]: 3.67%
- inhibition at 10 µM [3]: 13.9%
- inhibition at 10 µM [4]: -4.5%
- inhibition at 10 µM [5]: 3.16%
- inhibition at 10 µM [6]: 28.9%
- AMPA, PDSP raw data, mean [7]: -24.14%

SMILES: CCc1noc(-c2ncn3c2[C@@H](C)N=C(c2ccccc2F)c2cc(-c4ccccc4)ccc2-3)n1 [Compound 35, (R)-3-Ethyl-5-(6-(2′-fluorophenyl)-4-methyl-8-phenyl-4H-benzo[f]imidazo[1,5-a][1,4]diazepin-3-yl)-1,2,4-oxadiazole]
- inhibition at 10 µM [1]: 28.9%
- inhibition at 10 µM [2]: 11.6%
- inhibition at 10 µM [3]: 19.7%
- inhibition at 10 µM [4]: 6.05%
- inhibition at 10 µM [5]: 23.6%
- inhibition at 10 µM [6]: 54.7%
- AMPA, PDSP raw data, mean [7]: -5.68%

SMILES: C#Cc1ccc2c(c1)C(c1ccccc1F)=N[C@H](C)c1c(C(=S)N(C)C)ncn1-2 [Compound 33, (R)-8-Ethynyl-6-(2′-fluorophenyl)-N,N,4-trimethyl-4H-benzo[f]imidazo[1,5-a][1,4]diazepine-3-carbothioamide]
- inhibition at 10 µM [1]: 2.37%
- inhibition at 10 µM [2]: 11.8%
- inhibition at 10 µM [3]: 18%
- inhibition at 10 µM [4]: -4.45%
- inhibition at 10 µM [5]: 1.22%
- inhibition at 10 µM [6]: 0.9%
- AMPA, PDSP raw data, mean [7]: 7.77%

SMILES: C#Cc1ccc2c(c1)C(c1ccccn1)=N[C@@H](C)c1c(C(=O)NC)ncn1-2 [Compound 23, (S)-8-Ethynyl-N,4-dimethyl-6-(pyridin-2′-yl)-4H-benzo[f]imidazo[1,5-a][1,4]diazepine-3-carboxamide]
- inhibition at 10 µM [1]: 2.23%
- inhibition at 10 µM [2]: -3.82%
- inhibition at 10 µM [3]: -10.1%
- inhibition at 10 µM [4]: 3.79%
- inhibition at 10 µM [5]: -16.1%
- inhibition at 10 µM [6]: -16.8%
- AMPA, PDSP raw data, mean [7]: -17.23%

SMILES: C[C@H]1N=C(c2ccccc2F)c2cc(-c3ccccc3)ccc2-n2cnc(C(=O)N(C)C)c21 [Compound 5, (R)-6-(2′-Fluorophenyl)-N,N,4-trimethyl-8-phenyl-4H-benzo[f]imidazo[1,5-a][1,4]diazepine-3-carboxamide]
- inhibition at 10 µM [1]: 2.37%
- inhibition at 10 µM [2]: 11.8%
- inhibition at 10 µM [3]: 18%
- inhibition at 10 µM [4]: -4.45%
- inhibition at 10 µM [5]: 1.22%
- inhibition at 10 µM [6]: 0.9%
- AMPA, PDSP raw data, mean [7]: 7.77%

SMILES: C#Cc1ccc2c(c1)C(c1ccccn1)=N[C@@H](C)c1c(C(=O)N(C)C)ncn1-2 [Compound 31, (S)-8-Ethynyl-N,N,4-trimethyl-6-(pyridin-2′-yl)-4H-benzo[f]imidazo[1,5-a][1,4]diazepine-3-carboxamide]
- inhibition at 10 µM [1]: -0.48%
- inhibition at 10 µM [2]: -0.27%
- inhibition at 10 µM [3]: -12.3%
- inhibition at 10 µM [4]: -0.38%
- inhibition at 10 µM [5]: -11.1%
- inhibition at 10 µM [6]: -12.6%
- AMPA, PDSP raw data, mean [7]: -10.56%
